Assay results reported in patent publication US11051515B2, “3-acyl-benzamides and their use as herbicides” (Bayer Aktiengesellschaft, priority 2017, dated 2021).

Key:
VIOTR [1] = test: Pre-emergence action against VIOTR; type: in vivo, Viola tricolor; conditions: Dosage 320 g/ha, pre-emergence
In short: (§1)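 Seeds sown in sandy loam in wood-fiber pots and covered with soil. Greenhouse growth; visual damage scored after 3 weeks versus untreated controls (100% = dead, 0% = like control).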

POLCO [2] = test: Post-emergence action against POLCO; type: in vivo, Polygonum convolvulus; conditions: post-emergence, dosage 80 g/ha
In short: (§2)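 Post-emergence foliar spray on greenhouse plants at the one-leaf stage, using wettable-powder or emulsion-concentrate formulations in water (600 to […], plus 0.2% wetting agent). Damage scored by eye roughly 3 weeks later against untreated plants: 0% = like control, 100% = dead.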

ECHCG [3] = test: Pre-emergence action against ECHCG; type: in vivo, Echinochloa crus-galli; conditions: pre-emergence, dosage 320 g/ha, scored visually after 3 weeks vs untreated controls
In short: as §1

LOLRI [4] = test: Pre-emergence action against LOLRI; type: in vivo, Lolium rigidum; conditions: dosage 320 g/ha, scored visually after 3 weeks vs untreated controls
In short: as §1

AMARE [5] = test: Post-emergence action against AMARE; type: in vivo, Amaranthus retroflexus; conditions: post-emergence, dosage 80 g/ha, visual assessment about 3 weeks after treatment vs untreated controls
In short: as §2

HORMU = test: Pre-emergence action against HORMU; type: in vivo, Hordeum murinum; conditions: Dosage 320 g/ha
In short: as §1

STEME [6] = test: Post-emergence action against STEME; type: in vivo, Stellaria media; conditions: post-emergence, dosage 80 g/ha
In short: as §2

STEME [7] = test: Pre-emergence action against STEME; type: in vivo, Stellaria media; conditions: Dosage 320 g/ha, pre-emergence
In short: as §1

ABUTH [8] = test: Pre-emergence action against ABUTH; type: in vivo, Abutilon theophrasti; conditions: pre-emergence, dosage 320 g/ha, scored visually after 3 weeks vs untreated controls
In short: as §1

LOLRI [9] = test: Post-emergence action against LOLRI; type: in vivo, Lolium rigidum; conditions: dosage 80 g/ha, visual assessment about 3 weeks after treatment vs untreated controls
Description: (§3) Seeds of monocotyledonous and dicotyledonous weed and crop plants are laid out in sandy loam soil in wood-fiber pots, covered with soil and cultivated in a greenhouse under good growth conditions. 2 to 3 weeks after sowing, the test plants are treated at the one-leaf stage. The compounds of the invention, formulated in the form of wettable powders (WP) or as emulsion concentrates (EC), are then sprayed onto the green parts of the plants in the form of an aqueous suspension or emulsion at a water application rate equating to […], with addition of 0.2% wetting agent. After the test plants have been left to stand in the greenhouse under optimal growth conditions for about 3 weeks, the action of the preparations is assessed visually in comparison to untreated controls (herbicidal action in percent (%): 100% activity=the plants have died, 0% activity=like control plants). […] At the same time, inventive compounds leave Gramineae crops such as barley, wheat, rye, millet/Sorghum, corn or rice virtually undamaged when applied post-emergence, even at high active ingredient dosages. In addition, some substances are also harmless to dicotyledonous crops such as soya, cotton, oilseed rape, sugar beet or potatoes. Some of the compounds according to the invention have high selectivity and are therefore suitable for controlling unwanted vegetation in agricultural crops by the post-emergence method. The data of Tables B18 to B34 below illustrate, in an exemplary manner, the […] herbicidal action of the compounds according to the invention, the herbicidal activity being stated in percent.

AMARE [10] = test: Pre-emergence action against AMARE; type: in vivo, Amaranthus retroflexus; conditions: pre-emergence, dosage 320 g/ha, scored visually after 3 weeks vs untreated controls
In short: as §1

ABUTH [11] = test: Post-emergence action against ABUTH; type: in vivo, Abutilon theophrasti; conditions: post-emergence, dosage 80 g/ha, visual assessment about 3 weeks after treatment vs untreated controls
In short: as §2

POLCO [12] = test: Pre-emergence action against POLCO; type: in vivo, Polygonum convolvulus; conditions: Dosage 320 g/ha, pre-emergence
In short: as §1

CYPES [13] = test: Post-emergence action against CYPES; type: in vivo, Cyperus esculentus; conditions: post-emergence, dosage 80 g/ha, visual assessment about 3 weeks after treatment vs untreated controls
In short: as §2

PHBPU [14] = test: Post-emergence action against PHBPU; type: in vivo, Pharbitis purpurea; conditions: post-emergence, dosage 80 g/ha
In short: as §2

MATIN [15] = test: Pre-emergence action against MATIN; type: in vivo, Matricaria inodora; conditions: Dosage 320 g/ha, pre-emergence
In short: as §1

ALOMY [16] = test: Post-emergence action against ALOMY; type: in vivo, Alopecurus myosuroides; conditions: Dosage 80 g/ha, post-emergence
In short: as §2

PHBPU [17] = test: Pre-emergence action against PHBPU; type: in vivo, Pharbitis purpurea; conditions: Dosage 320 g/ha, pre-emergence
In short: as §1

VIOTR [18] = test: Post-emergence action against VIOTR; type: in vivo, Viola tricolor; conditions: post-emergence, dosage 80 g/ha
In short: as §2

ALOMY [19] = test: Pre-emergence action against ALOMY; type: in vivo, Alopecurus myosuroides; conditions: dosage 320 g/ha; pre-emergence; scored visually after 3 weeks vs untreated controls; 100% = plants have died, 0% = like control plants
In short: as §1

ECHCG [20] = test: Post-emergence action against ECHCG; type: in vivo, Echinochloa crus-galli; conditions: post-emergence, dosage 80 g/ha, visual assessment about 3 weeks after treatment vs untreated controls
In short: as §2

SETVI [21] = test: Pre-emergence action against SETVI; type: in vivo, Setaria viridis; conditions: pre-emergence, dosage 320 g/ha, scored visually after 3 weeks vs untreated controls
In short: as §1

MATIN [22] = test: Post-emergence action against MATIN; type: in vivo, Matricaria inodora; conditions: post-emergence, dosage 80 g/ha, visual assessment about 3 weeks after treatment vs untreated controls
In short: as §2

VERPE [23] = test: Post-emergence action against VERPE; type: in vivo, Veronica persica; conditions: dosage 80 g/ha
In short: as §2

AVEFA [24] = test: Pre-emergence action against AVEFA; type: in vivo, Avena fatua; conditions: dosage 320 g/ha, scored visually after 3 weeks vs untreated controls
In short: as §1

CYPES [25] = test: Pre-emergence action against CYPES; type: in vivo, Cyperus esculentus; conditions: pre-emergence, dosage 320 g/ha, scored visually after 3 weeks vs untreated controls
In short: as §1

SETVI [26] = test: Post-emergence action against SETVI; type: in vivo, Setaria viridis; conditions: post-emergence, dosage 80 g/ha, visual assessment about 3 weeks after treatment vs untreated controls
In short: as §2

VERPE [27] = test: Pre-emergence action against VERPE; type: in vivo, Veronica persica; conditions: Dosage 320 g/ha, pre-emergence
In short: as §1

AVEFA [28] = test: Post-emergence action against AVEFA; type: in vivo, Avena fatua; conditions: post-emergence, dosage 80 g/ha, visual assessment about 3 weeks after treatment vs untreated controls
In short: as §2

DIGSA [29] = test: Post-emergence action against DIGSA; type: in vivo, Digitaria sanguinalis; conditions: dosage 80 g/ha, visual assessment about 3 weeks after treatment vs untreated controls
Description: as §3

DIGSA [30] = test: Pre-emergence action against DIGSA; type: in vivo, Digitaria sanguinalis; conditions: dosage 320 g/ha, scored visually after 3 weeks vs untreated controls
Source text: Seeds of monocotyledonous and dicotyledonous weed plants and crop plants are laid out in sandy loam soil in wood-fiber pots and covered with soil. The compounds of the invention, formulated in the form of wettable powders (WP) or as emulsion concentrates (EC), are then applied to the surface of the covering soil in the form of an aqueous suspension or emulsion at a water application rate equating to […], with addition of 0.2% wetting agent. After the treatment, the pots are placed in a greenhouse and kept under good growth conditions for the trial plants. The damage to the test plants is scored visually after a test period of 3 weeks by comparison with untreated controls (herbicidal activity in percent (%): 100% activity=the plants have died, 0% activity=like control plants).

Structure (SMILES)	Pre-emergence action against VIOTR (VIOTR [1])	Post-emergence action against POLCO (POLCO [2])	Pre-emergence action against ECHCG (herbicidal activity) (ECHCG [3])	Pre-emergence action against LOLRI (herbicidal activity) (LOLRI [4])	Post-emergence action against AMARE (herbicidal action in percent) (AMARE [5])	Pre-emergence action against HORMU (HORMU)	Post-emergence action against STEME (STEME [6])	Pre-emergence action against STEME (STEME [7])	Pre-emergence action against ABUTH (herbicidal activity) (ABUTH [8])	Post-emergence action against LOLRI (herbicidal action in percent) (LOLRI [9])	Pre-emergence action against AMARE (herbicidal activity) (AMARE [10])	Post-emergence action against ABUTH (herbicidal action in percent) (ABUTH [11])	Pre-emergence action against POLCO (POLCO [12])	Post-emergence action against CYPES (herbicidal action in percent) (CYPES [13])	Post-emergence action against PHBPU (PHBPU [14])	Pre-emergence action against MATIN (MATIN [15])	Post-emergence action against ALOMY (ALOMY [16])	Pre-emergence action against PHBPU (PHBPU [17])	SETVI (Table B8, pre-emergence herbicidal activity) (SETVI [21])	Post-emergence action against MATIN (herbicidal action in percent) (MATIN [22])	also measured
CC1CC1C(=O)c1c(C(F)(F)F)ccc(C(=O)Nc2nnnn2C)c1Cl (stereo not shown) [1-148]	100%	80	100%	100%	100%	80%	100	100%	100%	80%	100%	100%	90%	90%	100	100%	80%	100%	100%	100%	Post-emergence action against VIOTR (VIOTR [18]): 90; Pre-emergence action against ALOMY (herbicidal activity in percent) (ALOMY [19]): 100%; Post-emergence action against ECHCG (herbicidal action in percent) (ECHCG [20]): 100%; Post-emergence action against VERPE (VERPE [23]): 100; Pre-emergence action against AVEFA (herbicidal activity) (AVEFA [24]): 90%; Pre-emergence action against CYPES (herbicidal activity) (CYPES [25]): 90%; Post-emergence action against SETVI (herbicidal action in percent) (SETVI [26]): 100%; Pre-emergence action against VERPE (VERPE [27]): 100%
CCn1nnnc1NC(=O)c1ccc(C(F)F)c(C(=O)C2CC2)c1Cl [2-168]	100%	100	100%	100%	100%	90%	100	100%	100%	100%	100%	100%	90%	100%	100	100%	100%	80%	100%	100%	Post-emergence action against AVEFA (herbicidal action in percent) (AVEFA [28]): 100%; Post-emergence action against VIOTR (VIOTR [18]): 100; Pre-emergence action against ALOMY (herbicidal activity in percent) (ALOMY [19]): 100%; Post-emergence action against ECHCG (herbicidal action in percent) (ECHCG [20]): 100%; Post-emergence action against VERPE (VERPE [23]): 80; Pre-emergence action against AVEFA (herbicidal activity) (AVEFA [24]): 90%; Post-emergence action against SETVI (herbicidal action in percent) (SETVI [26]): 100%; Pre-emergence action against VERPE (VERPE [27]): 100%
CCCn1nnnc1NC(=O)c1ccc(C(F)(F)F)c(C(=O)C2CCC2)c1Cl [3-153]	100%	–	–	–	100%	–	100	–	100%	–	100%	100%	–	–	–	90%	–	–	80%	100%	Post-emergence action against DIGSA (herbicidal action in percent) (DIGSA [29]): 80%; Pre-emergence action against DIGSA (herbicidal activity) (DIGSA [30]): 100%
